Assay results reported in patent US20120053053A1, “PYRIMIDINE DERIVATIVES AND THEIR USE AS HERBICIDES” (SYNGENTA CROP PROTECTION, LLC, priority 2009, published 2012).

What was measured:
Type in all cases: in vivo
[1] = system: Ipomea hederaceae (IPOHE); assay: Post-emergence biological efficacy (percentage damage); details: Ipomoea hederacea, 312 h, dose 1,000 g/ha, evaluated after 13 days, 100=total damage, 0=no damage
Procedure, shortened: (§1)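 Seedlings grown 8 days in soil in a glasshouse (24/16 °C day/night, 14 h light, 65% humidity), then sprayed with compound in acetone/water (50:50) with 0.5% Tween 20 at 250 or 1000 g/ha. Damage scored visually after 13 days (0 = none, 100 = total).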

[2] = system: Amaranthus retoflexus (AMARE); assay: as above; details: Amaranthus retroflexus, 312 h, dose 1,000 g/ha, evaluated after 13 days, 100=total damage, 0=no damage
Procedure, shortened: as §1

Solanum nigrum (SOLNI) [3] = assay: as above; details: Solanum nigrum, 312 h, dose 1,000 g/ha, evaluated after 13 days, 100=total damage, 0=no damage
Procedure, shortened: as §1

[4] = system: Alopecurus myosuroides (ALOMY); assay: as above; details: Alopecurus myosuroides, 312 h, dose 1,000 g/ha, evaluated after 13 days, 100=total damage, 0=no damage
Procedure, shortened: as §1

[5] = system: Echinochloa crus-galli (ECHCG); assay: as above; details: Echinochloa crus-galli, 312 h, dose 1,000 g/ha, evaluated after 13 days, 100=total damage, 0=no damage
Procedure, shortened: as §1

Setaria faberi (SETFA) [6] = assay: as above; details: Setaria faberi, 312 h, dose 1,000 g/ha, evaluated after 13 days, 100=total damage, 0=no damage
Procedure, shortened: as §1

[7] = system: Ipomea hederaceae (IPOHE); assay: Pre-emergence biological efficacy (percentage damage); details: Ipomoea hederacea, 312 h, dose 1,000 g/ha, evaluated after 13 days, 100=total damage, 0=no damage
Procedure, shortened: (§2)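 Pre-emergence test: seeds sown in standard soil in pots, kept one day in a glasshouse (24/16° C. day/night, 14 h light, 65% humidity), then sprayed at 250 or 1000 g/ha from an acetone/water (50:50) formulation with 0.5% Tween 20. Damage scored after 13 days (0 = none, 100 = total).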

[8] = system: Amaranthus retoflexus (AMARE); assay: as above; details: Amaranthus retroflexus, 312 h, dose 1,000 g/ha, evaluated after 13 days, 100=total damage, 0=no damage
Procedure, shortened: as §2

Solanum nigrum (SOLNI) [9] = assay: as above; details: Solanum nigrum, 312 h, dose 1,000 g/ha, evaluated after 13 days, 100=total damage, 0=no damage
Procedure, shortened: as §2

[10] = system: Alopecurus myosuroides (ALOMY); assay: as above; details: Alopecurus myosuroides, 312 h, dose 1,000 g/ha, evaluated after 13 days, 100=total damage, 0=no damage
Procedure, shortened: as §2

[11] = system: Echinochloa crus-galli (ECHCG); assay: as above; details: Echinochloa crus-galli, 312 h, dose 1,000 g/ha, evaluated after 13 days, 100=total damage, 0=no damage
Procedure, shortened: as §2

Setaria faberi (SETFA) [12] = assay: as above; details: Setaria faberi, 312 h, dose 1,000 g/ha, evaluated after 13 days, 100=total damage, 0=no damage
Procedure, shortened: as §2

SMILES | pest or weed control at 1000 g/ha [1] [%] | pest or weed control at 1000 g/ha [2] [%] | pest or weed control at 1000 g/ha (Solanum nigrum (SOLNI) [3]) [%] | pest or weed control at 1000 g/ha [4] [%] | pest or weed control at 1000 g/ha [5] [%] | pest or weed control at 1000 g/ha (Setaria faberi (SETFA) [6]) [%] | pest or weed control at 1000 g/ha [7] [%] | pest or weed control at 1000 g/ha [8] [%] | pest or weed control at 1000 g/ha (Solanum nigrum (SOLNI) [9]) [%] | pest or weed control at 1000 g/ha [10] [%] | pest or weed control at 1000 g/ha [11] [%] | pest or weed control at 1000 g/ha (Setaria faberi (SETFA) [12]) [%]
C=C(C)c1c(N)nc(-c2ccc(Cl)c(N(C)C)c2F)nc1C(=O)OC [Compound 33-64, 4-Amino-2-(4-chloro-3-dimethylamino-2-fluorophenyl)-6-methoxycarbonyl-5-(prop-1-en-2-yl)-pyrimidine] | 10 | 10 | 20 | 0 | 0 | 0 | 0 | 0 | 0 | 0 | 0 | 0
C=Cc1c(N)nc(-c2ccc(Cl)c(N(C)C)c2F)nc1C(=O)OC(C)c1ccccc1 (stereo not drawn) [Compound 33-394, 4-Amino-2-(4-chloro-3-dimethylamino-2-fluorophenyl)-5-ethenyl-6-(1-phenyl-ethoxy)carbonyl-pyrimidine] | 30 | 100 | 80 | 30 | 60 | 50 | 0 | 40 | 40 | 20 | 30 | 30
C=C(OCC)c1ccc(-c2nc(N)c(C(C)=O)c(C(=O)OC)n2)c(F)c1OC [Compound 66-53, 4-amino-2-(4-[1-ethoxyethenyl]-2-fluoro-3-methoxy-phenyl)-6-methoxycarbonyl-5-methylcarbonyl-pyrimidine] | 30 | 20 | 60 | 0 | 0 | 10 | 30 | 10 | 20 | 0 | 0 | 0
C=Cc1c(N=[N+]=[N-])nc(C2CC2)nc1C(=O)OC [Compound 2-399, 4-azido-2-cyclopropyl-5-ethenyl-6-methoxycarbonyl-pyrimidine] | 20 | 20 | 20 | 0 | 0 | 0 | 0 | 0 | 0 | 0 | 0 | 0
C=Cc1c(N)nc(-c2ccc(Br)cc2)nc1C(=O)OC [Compound 6-61, 4-Amino-2-(4-bromophenyl)-5-ethenyl-6-methoxycarbonyl-pyrimidine] | 70 | 100 | 90 | 60 | 50 | 30 | 80 | 100 | 90 | 70 | 50 | 30
C=CCc1c(N)nc(-c2ccc(C(F)(F)F)cc2)nc1C(=O)OC [Compound 31-63, 4-Amino-6-methoxycarbonyl-5-(prop-1-en-3-yl)-2-(4-trifluoromethyl-phenyl)-pyrimidine] | 40 | 40 | 50 | 0 | 0 | 0 | 0 | 0 | 0 | 0 | 0 | 0
C=Cc1c(N)nc(-c2ccc(Cl)c(N(C)C)c2F)nc1C(=O)OCC(C)C [Compound 33-326, 4-Amino-2-(4-chloro-3-dimethylamino-2-fluorophenyl)-5-ethenyl-6-(2-methylpropoxy) carbonyl-pyrimidine] | 50 | 100 | 90 | 20 | 80 | 40 | 10 | 60 | 60 | 20 | 40 | 20
C=C(C)c1c(N)nc(-c2ccc(C(F)(F)F)cc2)nc1C(=O)OC [Compound 31-64, 4-Amino-6-methoxycarbonyl-5-(prop-1-en-2-yl)-2-(4-trifluoromethyl-phenyl)-pyrimidine] | 60 | 40 | 60 | 0 | 0 | 20 | 0 | 0 | 0 | 0 | 0 | 0
COC(=O)c1nc(-c2ccc(Cl)c(N(C)C)c2F)nc(N)c1C [Compound 33-41] | 10 | 100 | 70 | 30 | 50 | 70 | 0 | 20 | 30 | 10 | 10 | 30
C=Cc1c(C(=O)OC)nc(C2CC2)nc1S(C)(=O)=O [Compound 2-402, 2-cyclopropyl-5-ethenyl-6-methoxycarbonyl-4-methylsulphonyl-pyrimidine] | 50 | 0 | 20 | 0 | 0 | 0 | 0 | 0 | 0 | 0 | 0 | 0
C=Cc1c(N)nc(-c2ccc(F)c(C)c2)nc1C(=O)OC [Compound 45-61, 4-Amino-5-ethenyl-2-(4-fluoro-3-methylphenyl)-6-methoxycarbonyl-pyrimidine] | 30 | 100 | 70 | 50 | 40 | 50 | 0 | 100 | 40 | 50 | 40 | 50
COC(=O)c1nc(-c2ccc(C(C)=O)c(OC)c2F)nc(N)c1C(C)=O [Compound 65-53, 4-Amino-2-(2-fluoro-3-methoxy-4-methylcarbonyl-phenyl)-6-methoxycarbonyl-5-methylcarbonyl-pyrimidine] | 50 | 20 | 70 | 0 | 10 | 10 | 20 | 0 | 0 | 0 | 0 | 0
C=C(OCC)c1c(N)nc(-c2ccc(C(F)(F)F)cc2)nc1C(=O)OC [Compound 31-67, 4-amino-5-(1-ethoxyethenyl)-6-methoxycarbonyl-2-(4-trifluoromethylphenyl)-pyrimidine] | 80 | 50 | 80 | 0 | 0 | 0 | 0 | 0 | 0 | 0 | 0 | 0
